Data as given in patent US12673947B2 (Cytosinlab Therapeutics Co., Ltd., priority 2020, dated 2026).
Structures can show the parent of a compound that is named as a salt.

How the values were obtained:
[1] = target: T1, FLT3 (Homo sapiens, UniProt P36888); assay: FLT3 kinase in vitro inhibitory activity experiment (Caliper mobility shift, conversion rate); assay type: biochemical; conditions: IC50 class, read-out: Enzyme activity FLT3
T1 construct: purchased Carna 08-145
T1 sequence (P36888 27-993): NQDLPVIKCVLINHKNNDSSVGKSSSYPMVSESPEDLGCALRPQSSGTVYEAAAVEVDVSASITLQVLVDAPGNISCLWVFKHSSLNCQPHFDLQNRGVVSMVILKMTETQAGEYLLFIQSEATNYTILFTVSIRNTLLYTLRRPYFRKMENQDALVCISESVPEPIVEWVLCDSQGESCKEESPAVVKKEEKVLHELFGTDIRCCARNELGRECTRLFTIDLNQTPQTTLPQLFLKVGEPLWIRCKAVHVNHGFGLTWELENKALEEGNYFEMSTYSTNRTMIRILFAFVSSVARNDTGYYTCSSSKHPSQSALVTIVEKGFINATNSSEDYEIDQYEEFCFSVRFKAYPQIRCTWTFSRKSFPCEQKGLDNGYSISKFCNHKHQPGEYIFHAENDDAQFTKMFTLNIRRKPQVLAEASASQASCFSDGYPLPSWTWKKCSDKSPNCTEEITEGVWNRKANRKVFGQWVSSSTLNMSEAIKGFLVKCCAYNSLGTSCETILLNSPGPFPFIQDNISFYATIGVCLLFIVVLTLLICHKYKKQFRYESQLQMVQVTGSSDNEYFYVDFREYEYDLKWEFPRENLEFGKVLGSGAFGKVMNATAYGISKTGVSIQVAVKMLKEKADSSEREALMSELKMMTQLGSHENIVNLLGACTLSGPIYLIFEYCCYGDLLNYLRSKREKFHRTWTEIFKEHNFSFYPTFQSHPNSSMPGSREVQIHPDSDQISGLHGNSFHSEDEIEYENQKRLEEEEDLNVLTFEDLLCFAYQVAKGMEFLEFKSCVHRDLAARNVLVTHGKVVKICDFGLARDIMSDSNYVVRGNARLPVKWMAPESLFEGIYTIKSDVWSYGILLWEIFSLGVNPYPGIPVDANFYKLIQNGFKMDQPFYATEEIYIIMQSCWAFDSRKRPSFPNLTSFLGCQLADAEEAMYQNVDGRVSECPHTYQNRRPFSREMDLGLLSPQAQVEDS
Experimental: Biological Test Example 1: FLT3 Kinase In Vitro Inhibitory Activity Experiment
Centrifuge (manufacturer: Eppendorf, model: 5430), microplate reader (manufacturer: Perkin Elmer, model: Caliper EZ Reader II), Echo 550 (manufacturer: Labcyte, model: Echo 550)
1. Kinase Reaction Process
• (1) 1×Kinase buffer was prepared. • (2) Preparation of the serial compound dilutions: the initial stock (the concentration of the tested compound was 1 μM) was diluted by 3-fold into 10 concentrations, and was single-well detected. The compounds were series diluted to solutions of 10 different concentration (100-folds final concentration) in 384-well plates. 250 nl of solution was transferred to each well of 384-well plate by Echo550. 100% DMSO (250 nl) was added to negative control wells and positive control wells respectively. • (3) Kinase solution (2.5 times final concentration) was prepared with 1×Kinase buffer. • (4) 10 μL of kinase solution (2.5 times final concentration) was added to compound wells and positive control wells respectively: 1×Kinase buffer (10 μL) was added to the negative control wells. • (5) The solution was centrifuged at 1000 rpm for 30 seconds, shaked and mixed, and incubated at room temperature for 10 minutes. • (6) The mixed solution of ATP and Kinase substrate 2 (25/15 times final concentration) was prepared with 1×Kinase buffer. • (7) 15 μL of mixed solution ATP and Kinase substrate 2 (25/15 times final concentration) was added to initiated the reaction. • (8) 384 well plate was centrifuged at 1000 rpm for 30 seconds, shaked and mixed, then incubated at room temperature for 30 minutes. • (9) Stop solution (30 μL) was added to stop kinase reaction, and the solution was centrifuged at 1000 rpm for 30 seconds, shaked and mixed. • (10) The conversion rate was read with Caliper EZ Reader II. 2. Data Analysis Formula for Calculation
Wherein: Conversion %_sample is the reading of the sample conversion; Conversion %_min: negative control well.

[2] = system: MV4;11 cells; assay: MV4;11 in vitro inhibition of proliferation assay (CellTiter-Glo, 72 hours); assay type: cell-based; conditions: Homo sapiens, MV4-11, 72 h, IC50 class, read-out: Inhibitory activity of cell proliferation MV4;11
From the text: Biological Test Example 2: MV4;11 In Vitro Inhibition of Proliferation Assay
The MV4;11 cell lines were purchased from the cell bank of the Chinese Academy of Sciences, IMDM medium (Gibco, catalog number 12440), fetal bovine serum (Gibco, catalog number 10099141C), penicillin-streptomycin antibiotics (Gibco, catalog number 15140122), DMSO (Sigma, catalog number D2650), Celltiter-Glo kit (CTG) (Promega, catalog number G7573), 384-well clear flat-bottom black cell culture plate (Corning, catalog number 3764), D300e digital dispenser (Tecan, catalog number D300e), SpectraMax i3x microplate reader (MOLECULAR DEVICES, catalog number i3x)
MV4;11 cell was cultivated in IMDM, 10% fetal bovine serum, 1% penicillin-streptomycin antibiotics, and cell density was kept less than 1.0*10E6 cells per ml to ensure that it was always in logarithmic growth phase. Cell viability was greater than 95%.
The compounds to be tested was diluted by 3 times from 10 uM with DMSO to 9 concentrations. 60 nl diluted compound was added to the cell culture plate and three duplicates were set up.
The prepared MV4;11 cell suspension was added to the 384-well plate, and 20 microliters of cell suspension was added per well, i.e., each well contained 2000 MV4;11 cells, of which the final concentration of DMSO was 0.3%. The cell culture plate was placed in 37° C. and incubated in a 5% carbon dioxide incubator for 72 hours.
20 μL of Promega CellTiter-Glo reagent was added to per well, and the plate was incubated at room temperature for 10 minutes when the luminescence signals were stable. SpectraMax i3x microplate reader was used to read signals.
The original data was converted into inhibition rate, and the IC50 value (half inhibition concentration) of the compound was determined by fitting the nonlinear four-parameter curve.

For CCc1nc2c(N)ncc(-c3cccc(OC)c3)c2nc1NC1CCOCC1 [Compound 3], the IC50 [1] was 10 to 100 nM and the IC50 [2] was over 500 nM.

With CCc1nc2c(N)ncc(-c3ccc(N4CCC(N5CCN(C)CC5)CC4)cc3)c2nc1NC1CCOCC1 [Compound 7] the IC50 [1] was at most 10 nM and the IC50 [2] was 10 to 100 nM.

CCc1nc2c(N)ncc(-c3ccc(N4CCC(N5CCN(C)CC5)CC4)c(OC)c3)c2nc1NC1CCOCC1 [Compound 8, 3-ethyl-8-(3-methoxy-4-(4-(4-methylpiperazin-1-yl)piperidin-1-yl)phenyl)-N2-(tetrahydropyran-4-yl)pyrido[3,4-b]pyrazine-2,5-diamine trihydrochloride] showed an IC50 [1] of at most 10 nM and an IC50 [2] of 10 to 100 nM.

With CCc1nc2c(Cl)ncc(-c3ccc(N4CCC(N5CCNCC5)CC4)c(OC)c3)c2nc1NC1CCOCC1 [Compound 11] the IC50 [1] was 10 to 100 nM and the IC50 [2] was over 500 nM.

CCc1nc2c(N)ncc(-c3ccc(N4CCC(N5CCN(C)CC5)CC4)c(C)c3)c2nc1NC1CCOCC1 [Compound 13] showed an IC50 [1] of at most 10 nM and an IC50 [2] of 10 to 100 nM.

For CCc1nc2c(N)ncc(-c3ccc(N4CCC(N5CCN(C)CC5)CC4)c(F)c3)c2nc1NC1CCOCC1 [Compound 14], the IC50 [1] was at most 10 nM and the IC50 [2] was 10 to 100 nM.

CCc1nc2c(N)ncc(-c3ccc(N4CCC(N5CCN(C)CC5)CC4)c(C#N)c3)c2nc1NC1CCOCC1 [Compound 15] showed an IC50 [1] of at most 10 nM and an IC50 [2] of 10 to 100 nM.

Work on CCc1nc2c(N)ncc(-c3ccc(N4CCC(N5CCN(C)CC5)CC4)c(C(F)(F)F)c3)c2nc1NC1CCOCC1 [Compound 16] yielded an IC50 [1] of at most 10 nM and an IC50 [2] of 10 to 100 nM.

Work on CCc1nc2c(N)ncc(-c3ccc(N4CCC(N5CCN(C)CC5)CC4)c(OC(F)(F)F)c3)c2nc1NC1CCOCC1 [Compound 17] yielded an IC50 [1] of at most 10 nM and an IC50 [2] of 10 to 100 nM.

With CCc1nc2c(N)ncc(-c3ccc(N4CCC(N5CCN(C)CC5)CC4)nc3)c2nc1NC1CCOCC1 [Compound 21] the IC50 [1] was 10 to 100 nM and the IC50 [2] was 100 to 500 nM.

CCc1nc2c(N)ncc(-c3ccc(N4CCC(N5CCN(C)CC5)CC4)c(OC(C)C)c3)c2nc1NC1CCOCC1 [Compound 22] gave an IC50 [1] of at most 10 nM and an IC50 [2] of 10 to 100 nM.

With CCc1nc2c(N)ncc(-c3ccc(N4CCC(N5CCN(C)CC5)CC4)c(OCCOC)c3)c2nc1NC1CCOCC1 [Compound 23] the IC50 [1] was at most 10 nM and the IC50 [2] was 10 to 100 nM.

For COc1cc(-c2cnc(N)c3nc(C)c(NC4CCOCC4)nc23)ccc1N1CCC(N2CCN(C)CC2)CC1 [Compound 26], the IC50 [1] was 10 to 100 nM and the IC50 [2] was 100 to 500 nM.

In the case of COc1cc(-c2cnc(N)c3nc(C(C)C)c(NC4CCOCC4)nc23)ccc1N1CCC(N2CCN(C)CC2)CC1 [Compound 27], the IC50 [1] is reported as at most 10 nM and the IC50 [2] is reported as 10 to 100 nM.

For CCCc1nc2c(N)ncc(-c3ccc(N4CCC(N5CCN(C)CC5)CC4)c(OC)c3)c2nc1NC1CCOCC1 [Compound 28], the IC50 [1] was at most 10 nM and the IC50 [2] was 10 to 100 nM.

With CCc1nc2c(N)ncc(-c3ccc(N4CCC5(CCN(C)CC5)CC4)c(C)c3)c2nc1NC1CCOCC1 [Compound 31] the IC50 [1] was at most 10 nM and the IC50 [2] was 10 to 100 nM.

CCc1nc2c(N)ncc(-c3ccc(N4CCC5(CCN(C)CC5)CC4)c(OC)c3)c2nc1NC1CCOCC1 [Compound 32] was tested, and the IC50 [1] was at most 10 nM and the IC50 [2] was 10 to 100 nM.

With CCc1nc2c(N)ncc(-c3ccc(N4CCC5(CC4)CN(C)C5)c(OC)c3)c2nc1NC1CCOCC1 [Compound 33] the IC50 [1] was at most 10 nM and the IC50 [2] was 10 to 100 nM.

Work on CCc1nc2c(N)ncc(-c3ccc(N4CCC(N5CCNCC5)CC4)c(OC)c3)c2nc1NC1CCOCC1 [Compound 35] yielded an IC50 [1] of at most 10 nM and an IC50 [2] of 10 to 100 nM.

In the case of CCc1nc2c(N)ncc(-c3ccc(N4CCN(C5CCN(C)CC5)CC4)c(OC)c3)c2nc1NC1CCOCC1 [Compound 36], the IC50 [1] is reported as at most 10 nM and the IC50 [2] is reported as 10 to 100 nM.

CCc1nc2c(N)ncc(-c3ccc(N4CCN(C)CC4)c(OC)c3)c2nc1NC1CCOCC1 [Compound 37] was tested, and the IC50 [1] was at most 10 nM and the IC50 [2] was 10 to 100 nM.

Compound CCc1nc2c(N)ncc(-c3ccc(N4CCOCC4)c(OC)c3)c2nc1NC1CCOCC1 [Compound 38] has an IC50 [1] of at most 10 nM and an IC50 [2] of 10 to 100 nM.

For CCc1nc2c(N)ncc(-c3ccc(N4CCC(O)CC4)c(OC)c3)c2nc1NC1CCOCC1 [Compound 39], the IC50 [1] was at most 10 nM and the IC50 [2] was 10 to 100 nM.

CCc1nc2c(N)ncc(-c3cccc(CN4CCC(N5CCN(C)CC5)CC4)c3)c2nc1NC1CCOCC1 [Compound 43, 3-ethyl-8-(3-((4-(4-methylpiperazine-1-yl)piperidine-1-yl)methyl)phenyl)-N2-(tetrahydro-2H-pyran-4-yl)pyrido[3,4-b]pyrazine-2,5-diamine] gave an IC50 [1] of 10 to 100 nM and an IC50 [2] of 100 to 500 nM.

CCc1nc2c(N)ncc(-c3ccc(CN4CCC(N5CCN(C)CC5)CC4)c(OC)c3)c2nc1NC1CCOCC1 [Compound 44] gave an IC50 [1] of 10 to 100 nM and an IC50 [2] of over 500 nM.

Work on CCc1nc2c(N)ncc(-c3ccc(N4CCC(CN5CCN(C)CC5)CC4)c(OC)c3)c2nc1NC1CCOCC1 [Compound 45, 3-ethyl-8-(3-methoxy-4-(4-((4-methylpiperazine-1-yl)methyl)piperidine-1-yl)phenyl)-N2-(tetrahydro-2H-pyran-4-yl)pyridino[3,4-b]pyrazine-2,5-diamine] yielded an IC50 [1] of at most 10 nM and an IC50 [2] of 10 to 100 nM.

CCc1nc2c(N)ncc(-c3ccc(N4CCC(N5CCN(C)CC5)C4)c(OC)c3)c2nc1NC1CCOCC1 (stereo not drawn) [Compound 46] gave an IC50 [1] of at most 10 nM and an IC50 [2] of 10 to 100 nM.

In the case of CCc1nc2c(N)ncc(-c3ccc(N4CCC(N(C)CCN(C)C)CC4)c(OC)c3)c2nc1NC1CCOCC1 [Compound 48], the IC50 [1] is reported as at most 10 nM and the IC50 [2] is reported as 10 to 100 nM.

CCc1nc2c(N)ncc(-c3cnn(C4CCNCC4)c3)c2nc1NC1CCOCC1 [Compound 58] was tested, and the IC50 [1] was at most 10 nM and the IC50 [2] was 10 to 100 nM.

CCc1nc2c(N)ncc(-c3ccc(N4CCC(N5CCN(C)CC5)CC4)c(OC)c3)c2nc1N[C@H]1CC[C@H](O)CC1 [Compound 65] gave an IC50 [1] of at most 10 nM and an IC50 [2] of 10 to 100 nM.

CCc1nc2c(N)ncc(-c3ccc(N4CCC(N5CCN(C)CC5)CC4)c(OC)c3)c2nc1NC1CCN(C)CC1 [Compound 66] showed an IC50 [1] of at most 10 nM and an IC50 [2] of 10 to 100 nM.

CCc1nc2c(N)ncc(-c3ccc(N4CCC(N5CCN(C)CC5)CC4)c(OC)c3)c2nc1NC1CCC(O)C1 (stereo not drawn) [Compound 67] was tested, and the IC50 [1] was at most 10 nM and the IC50 [2] was 10 to 100 nM.

Compound CCc1nc2c(N)ncc(-c3ccc(N4CCC(N5CCN(C)CC5)CC4)c(OC)c3)c2nc1NCC(C)(C)O [Compound 68] has an IC50 [1] of at most 10 nM and an IC50 [2] of 10 to 100 nM.
